Assay results from patent publication US5877185A, “Synergistic compositions useful as anti-tumor agents” (priority 1995, dated 1999).

Legend:
Molt-4 = assay: cytotoxicity of INO2 BA with and without BSO, Molt-4; assay type: cell-based; settings: Homo sapiens, INO2 BA alone, 48 hours
Description: The concentration of BSO was 1 mM for all cell lines except HT 144, where the concentration was 0.25 mM. Cells were seeded in the recommended growth medium at a density of 1.5×10^4 cell/cm^2 into 2 cm^2 wells. Drugs were added simultaneously 4 hours after seeding, and incubation was continued for 48 hours at 37° C. in a 5% CO2 atmosphere. For assessment of drug effects cells were detached by trypsinization and counted in a hemacytometer.
Cell lines Nos. 1-4 were obtained from Dr. C. Benz, University of California, San Francisco. MDA 468 and MCF-7 human mammary cancer lines, MCF-7-B-ADR drug-resistant mammary cancer line, Du 145 drug-resistant human prostate cancer line, HT 144 human melanoma cell line, Hep-G2 human hepatocellular carcinoma line, and PC-12 rat pheochromocytoma line were obtained from the University of California Cell Culture Facility.

[1] = tested on: SIVmac239 or virus isolates in CEM ×174 cells; assay: SIV replication in CEM ×174 cells, SIV p27 core antigen assay; assay type: cell-based
Source text: Infected cell cultures described in FIG. 4 were used for determination of supernatant virus titers by SIV p27 core antigen assay as described in Example XIV. The ordinate represents p27 ELISA performed on day 10 of the assay and the abscissa represents the concentration of INO2 BA alone (rear rows in panels A, B and C) and in combination with BSO (front rows in panels A, B and C).
(§1) CEM ×174 cells (3×10^5 /ml) were infected with 3.75 TCID50 /ml (50% tissue culture infectious dosage per ml of cell suspension) stock solution of SIVmac239 or virus isolates from SIVmac239-infected rhesus macaques on day 0. Uniform infection of cells was ensured by the infection of one cell population only per virus preparation. Three days post-infection, the cells were distributed (500 μl/well) into individual wells of a 24-well plate. Fresh medium containing INO2 BA concentrations ranging from 0 to 300 μM and/or BSO concentrations ranging from 0 to 0.25 mM were added to establish final 1-ml reaction volumes, and the cultures were further incubated for 4 days. The wells were then replenished with fresh CEM ×174 cells (3×10^5 /ml), INO2 BA and/or BSO were re-added at the same concentrations as in the original incubates, and incubation was continued for an additional 3 days. This procedure intends to mimic conditions of in vivo chemotherapy. Cell viability and virus titers in the supernatant were determined on day 10 (3 days after the addition of new cells) by the tetrazolium (MTT) method of Hansen et al., J. Immunol. Methods 119:208-210 (1982) and by the SIV p27 and reverse transcriptase (RT) assays described by Chuang et al., FEBS Lett. 326:140-144 (1993), respectively.
SIVmac p27 core antigen levels were determined by an enzyme immunoassay provided by Coulter Corp. (Hialeah, Fla.). The assay was performed according to the manufacturer's specifications.

[2] = tested on: SIV-infected CEM ×174 cells; assay: viability of SIV-infected CEM ×174 cells, tetrazolium (MTT) assay; assay type: cell-based, human; settings: day 10
Source text: In both (A) and (B) the ordinate represents cell viability on day 10 of the assay and the abscissa represents the concentration of INO2 BA in the absence of BSO (FIG. 4A), and in the presence of BSO (FIG. 4B).
as §1, with “The wells were then replenished with fresh CEM ×174 cells (3×10^5 /ml), INO2 BA and/or BSO were re-added at the same concentrations as in the original incubates, and incubation was continued for an additional 3 days. This procedure intends to mimic conditions of in vivo chemotherapy.” left out, “Methods 119:208-210 (1982) and by the SIV p27 and reverse transcriptase (RT) assays described by Chuang et al., FEBS Lett. 326:140-144 (1993), respectively.” left out
The viability of infected and uninfected cell cultures was determined by the method of Hansen et al., J. Immunol. […] Following overnight incubation at 37° C., optical absorbance were measured at 570 nm using a microtiter plate reader (Molecular Devices Corp., Sunnyvale, Calif.).

[3] = tested on: SIV 23686 (AZT-resistant); assay: AZT-resistant SIV propagation (syncytia formation), SIV 23686; assay type: cell-based; settings: for Syncytia: BSO 0
Description: CEM × 174 (3 × 10^5 /ml) were infected with equal doses o
SIVmac239 or virus isolates from SIVmac239infected rhesus macaques (MMU
23686, 22803). Three days postinfection, INO2 BA concentrations
ranging from 0 to 300 μM with or without BSO were added, and incubated
for an additional 3 days. Cell cultures were then examined for syncytia
formation. The number of syncytia in cell cultures was counted in
arbitration fields under 40× magnification and scored as follows: […]

[4] = tested on: HIV-1 (MN strain) virions; assay: zinc loss from treatment of HIV-1 virions with NOBA; assay type: biochemical
Description: Experiments were performed to determine if NOBA is capable of ejecting zinc from intact virions. HIV-1 (MN strain) was produced, purified and concentrated as described in Bess et al., J. Virol. 66:840-847 (1992). The concentrated virus was diluted to 60 times that of culture fluid in TNE buffer (0.01M Tris-HCl, 0.1M NaCl, 1 mM EDTA, pH 7.2) and incubated with 3000 or 6000 μM NOBA at 37° C. The virus was then pelleted and washed with TNE buffer to remove weakly bound zinc. The quantity of zinc in the resulting viral pellets was determined as described in Bess et al., J. Virol. 66:840-847 (1992).

[5] = tested on: normal bone marrow progenitor cells; settings: tumoricidal concentrations; cited from earlier work
[6] = tested on: human immunodeficiency virus HIV-1; settings: human lymphocytes; cited from earlier work
HIV-1 NC zinc fingers = settings: isolated HIV-1 NC zinc fingers and intact HIV-1 virions; cited from earlier work
[7] = tested on: AZT-resistant rhesus macaque (MMU-23740)-derived SIV; settings: cited from earlier work

Compound: NC(=O)c1ccc(I)c([N+](=O)[O-])c1 [INO2 BA, 4-iodo-3-nitrobenzamide]
- IC50 (Molt-4; read-out: I50): 70 µM
- IC100 (Molt-4; read-out: LD100): 196 µM
- SIV p27 formation ([1]; INO2 BA alone, FIG. 5A-C): almost complete inhibition
- effect of GSH depletion by BSO on inhibitory effect on SIV replication ([1]; with BSO, CEM ×174 cells): synergistically enhances
- apparent cell viability [2]: protected
- Syncytia ([3]; INO2 BA 25 μM): ++ (10-20)
- Syncytia ([3]; INO2 BA 50 μM): ++ (10-20)
- Syncytia ([3]; INO2 BA 100 μM): ++ (10-20)
- Syncytia ([3]; INO2 BA 200 μM): + (1-9)
- Syncytia ([3]; INO2 BA 300 μM): - (0)
- IC100 ([3]; Simian immunodeficiency virus, 72 h, read-out: INO2 BA concentration abolishing cell fusion (syncytia)): > 200 µM
- inhibitory concentration of INO2 BA (syncytia) ([3]; with 0.01 mM BSO): 50 µM

Compound: NC(=O)c1cccc(N=O)c1 [NOBA, 3-nitrosobenzamide]
- Zinc Loss ([4]; 3,000 μM NOBA, 2 hr): 52%
- Zinc, NOBA-Treated Sample ([4]; 3,000 μM NOBA, 2 hr, control 0.21): 0.11 µg/mL
- Zinc Loss ([4]; 6,000 μM NOBA, 4 hr): 83%
- Zinc, NOBA-Treated Sample ([4]; 6,000 μM NOBA, 4 hr, control 0.24): 0.04 µg/mL
- loss of viral proteins in the pellet ([4]; 3000 or 6000 μM NOBA): No significant loss
- effect on normal bone marrow progenitor cells [5]: relatively harmless
- inhibition of HIV-1 infection [6]: inhibit infection
- zinc ejection (HIV-1 NC zinc fingers): eject zinc
- inhibition of infectious cycle [7]: equally inhibited
